Results published in patent US4578382A, “4-acylamino-1-azaadamantanes, and compositions for use thereof in medicine” (Etablissements Nativelle S.A., priority 1981, dated 1986).
Read-outs that look alike come from different tables or passages of the source.

Experiments:
[1] = tested on: ventricular arrhythmias with adrenalin; experiment: Test with adrenalin after experimental infarct; format: in vivo, dog
Excerpt: (§1) Narcisse et al, Ann. Pharma. Fr., 37, 325-330 (1979), in the rat by the aconitine intoxication test of S. Witchitz et al, Coeur Med. Int., X(2), 281-286, (1971) and in the dog by the Harris test described in Circulation, 1, 1318, (1950) and by the test with adrenalin after experimental infarct of I. J. Steffe et al, J. Pharmacol. Exp. Ther., 214, 50-57 (1980).
2 to 5 days after an experimental infarct, the effects of discontinuous injections (in intravenous bolus of […] of basic adrenalin) of adrenalin were observed on the electrocardioagram of the conscious dog.
During a first phase (control) of the experiment, three successive injections of adrenalin were given and, in the 2 minutes following each injection, the frequency of the ventricular extrasystoles was measured. In this manner, by increasing the dose of adrenalin as necessary, it was possible to determine the dose which caused the appearance of ventricular extrasystoles at a higher frequency than or equal to half the total number of ventricular systoles.
After injection of the derivative to be tested, the same dose of adrenalin was reinjected after 5 minutes, then 30 minutes, 60 minutes, 90 minutes, etc., and its effects were compared to those observed during the control period.
The results therein are expressed as a percentage of extrasystoles (on the total number of systoles) measured during the 2 minutes following the injection of adrenalin before and after the administration of the derivative to be tested.

[2] = Acute toxicity in the mouse (LD 50, Litchfield and Wilcoxon); conditions: in vivo
Procedure: The acute toxicity of the derivatives of the invention were studied by intraperitoneal administration (I.P.) on the mouse (10 animals, 5 males and 5 females per dose) and calculation of the lethal dose 50 (LD 50) in accordance with the method of Litchfield and Wilcoxon (J. Pharmacol. 96, 99-113 (1949)).
In certain cases (derivatives of Examples 4, 6, 9), the LD 50 was also calculated after oral administration (P.O.) of the derivatives.

anesthetized dog [3] = experiment: Electrophysiological studies on the anesthetized dog; format: in vivo; conditions: i.v., doses 0.1 to 1.4 mg/kg; 1 evaluation
Procedure: This study was carried out on dogs anesthetized with pentobarbital, with a closed thorax, by means of bipolar catheter-electrodes introduced into the cardiac cavities by transcutaneous venous and arterial means. The surface electrocardiogram (standard derivation D2) is recorded permanently.
By means of a programmable JANSEN (R) stimulator, the following parameters may be measured:
spontaneous cardiac frequency (FC);
sinus recuperation time (SRTc) after auricular stimulation imposed at 160 b/mn for 1 mn;
intracardiac conduction times (auriculohisien at a constant frequency, His-Purkinje, intraventricular);
the effective and functional refractory periods measured at an imposed constant frequency, with the extrastimulus method.
During the electrophysiological study, the derivatives were injected intravenously for 2 minutes for each dose and at 30 minute intervals between each dose. The doses are expressed as a cumulative value and as a base term.
The measurement of the various parameters was carried out before the injection of the first dose (control period) and from 10 to 28 minutes after the injection of each dose of the substance. The results are expressed as a percentage of variation in relation to the control period.

anesthetized dog [4] = experiment: Hemodynamic (cardiovascular) tolerance in the anesthetized dog; format: in vivo; conditions: i.v.; for Cardiac Flow, percentage of variation / Cardiac Frequency, percentage of variation / Systolic Arterial Pressure, percentage of variation / Total Peripheral Resistances, percentage of variation / dp/dt/p Left Ventricular, percentage of variation: vs control period
Procedure: The hemodynamic tolerance of the derivatives of the invention was studied on dogs anesthesized with sodium pentobarbital. Endocavitary pressures were measured by means of catheters connected to Statham sensors while external recording of the electrocardiogram (E.C.G.) provided the measurement of cardiac frequency. Cardiac flow was measured by means of an electromagnetic sensor placed on the beginning of the aorta. The total peripheral resistances R were calculated from the value of the average aortic pressure (P) and the cardiac flow (Q) in accordance with the formula R=P/Q.
After measurement of the parameters during a control period, the derivatives were injected intravenously in cumulative doses (30 minute interval between doses). The variations of the parameters in relation to the control period were measured within 20 and 30 minutes after each injection and are expressed as a percentage of variation in relation to the control.
Table 2 summarizes the variations in hemodynamic parameters observed between the first and last injections.

[5] = tested on: ventricular arrhythmias and death induced by the aconitine; experiment: Aconitine intoxication test in the anesthetized rat; format: in vivo; conditions: i.v., vs untreated control
Excerpt: as §1
The anesthetized rat was intoxicated with an intravenous perfusion of aconitine while its electrocardiogram (ECG) was permanently recorded. During the perfusion at constant rate, the time necessary for the appearance of ventricular arrhythmias, successive extrasystoles (ESV), then stable ventricular tachycardium (TV) and the time within which the animal died were measured.
The animals were divided into a control group (untreated) and treated groups (different doses). The results are expressed as a percentage of prolonging the time of appearance of the arrhythmias and of death of the treated groups in reaction to the control group.
The results obtained are shown in Table 4 below and express the percentage of prolongation of the time of appearance of ventricular arrhythmias (ventricular extrasystoles and ventricular tachycardiums), and of the death, induced by the aconitine after an intravenous injection (I.V.) of several derivatives of the invention, in relation to a group of untreated control animals.

[6] = Lawson test (cardiac antifibrillatory power, chloroform); conditions: in vivo, ip; mouse, intraperitoneal; read-out: Maximum Dose Tolerated
[7] = tested on: anoxic ventricular fibrillation; experiment: as above; format: in vivo; conditions: ip; mouse, intraperitoneal, 10 minutes before chloroform
Procedure: The Lawson test is a test for the study of the cardiac antifibrillatory power of the derivatives. The mice (20 per group) received an intraperitoneal injection of the derivative 10 minutes before being placed in a chloroform-saturated atmosphere. Upon respiratory arrest, the thorax was opened (5 to 10 seconds) and whether or not the heart was in ventricular fibrillation was checked. The efficacy dose 50 (ED 50) of the derivative being studied is the dose which protects half the mice against anoxic ventricular fibrillation.

[8] = 1.3 mg/kg, control period 85% of ESV
[9] = ip, intraperitoneal, read-out: LD 50 I.P.
[10] = cumulative doses 0.1 to 1 mg/kg
[11] = 10 mg/kg, control period 40% of ESV
[12] = 4 mg/kg, control period 71% of ESV
[13] = cumulative doses 0.3 to 10 mg/kg

## CC1(NC(=O)CC(c2ccccc2)c2ccccc2)C2CC3CC1CN(C2)C3(C)C (single isomer, unassigned) [Example 6, N-(3,3-diphenylpropionyl)-4-amino-4,8,8-trimethyl-1-azaadamantane]
[1]; [8]
  ESV Percentage at 5 min: 29%
  ESV Percentage at 30 min: 17%
  ESV Percentage at 60 min: 17%
[2]; [9]
  LD50: 51 mg/kg
[2]; oral, read-out: LD 50 P.O.
  LD50: 380 mg/kg
Anesthetized dog [3]
  F.C. (cardiac frequency), variation: 0 to +32%
  HV (time of His-Purkinje conduction), variation: 0 to +92%
  PREA (effective auricular refractory period), variation: +18 to +50%
  PREV (effective ventricular refractory period), variation: +10 to +20%
  QRS (time of intraventricular conduction), variation: 0 to +50%
  St-H (time of auriculohisien conduction), variation: 0 to +25%
Anesthetized dog [4]; anesthetized dog
  Cardiac frequency, maximum variation: +10%
Anesthetized dog [4]; [10]
  Cardiac Flow, percentage of variation: -3 to -18%
  Cardiac Frequency, percentage of variation: -3 to +10%
  Systolic Arterial Pressure, percentage of variation: -8 to -16%
  Total Peripheral Resistances, percentage of variation: 0%
  dp/dt/p Left Ventricular, percentage of variation: -6 to -13%
[5]; 1 mg/kg
  Prolongation of time of appearance of ventricular extrasystoles (ESV): +52%
  Prolongation of time of appearance of ventricular tachycardium (TV): +93%
  Prolongation of time to death: +69%
[5]; 2 mg/kg
  Prolongation of time of appearance of ventricular extrasystoles (ESV): +67%
  Prolongation of time of appearance of ventricular tachycardium (TV): +139%
  Prolongation of time to death: +97%

## COc1ccc(CCC(=O)NC2(C)C3CC4CC2CN(C3)C4(C)C)cc1 (centres unmarked) [Example 5, N-[3-(p-methoxy-phenyl)propionyl]-4-amino-4,8,8-trimethyl-1-azaadamantane]
[1]; [11]
  ESV Percentage at 5 min: 9%
  ESV Percentage at 30 min: 14%
  ESV Percentage at 60 min: 16%
[6]
  MTD: 200 mg/kg
[2]; [9]
  LD50: 250 mg/kg
[7]
  ED50: 61 mg/kg
Anesthetized dog [4]; anesthetized dog
  Cardiac frequency, in words: the frequency does not change
Anesthetized dog [4]; cumulative doses 1 to 10 mg/kg
  Cardiac Flow, percentage of variation: +4 to -8%
  Cardiac Frequency, percentage of variation: 0%
  Systolic Arterial Pressure, percentage of variation: 0 to +3%
  Total Peripheral Resistances, percentage of variation: -6 to +11%
  dp/dt/p Left Ventricular, percentage of variation: +2 to -15%
[5]; 5 mg/kg
  Prolongation of time of appearance of ventricular extrasystoles (ESV): +41%
  Prolongation of time of appearance of ventricular tachycardium (TV): +20%
  Prolongation of time to death: +21%
[5]; 10 mg/kg
  Prolongation of time of appearance of ventricular extrasystoles (ESV): +51%
  Prolongation of time of appearance of ventricular tachycardium (TV): +48%
  Prolongation of time to death: +36%
[5]; 20 mg/kg
  Prolongation of time of appearance of ventricular extrasystoles (ESV): +65%
  Prolongation of time of appearance of ventricular tachycardium (TV): +54%
  Prolongation of time to death: +50%

## CC1(NC(=O)c2ccccc2)C2CC3CC1CN(C2)C3(C)C (centres unmarked) [Example 7, 4-N-benzoylamino-4,8,8-trimethyl-1-azaadamantane]
[6]
  MTD: 150 mg/kg
[2]; [9]
  LD50: 230 mg/kg
[7]
  ED50: 76 mg/kg
[5]; 5 mg/kg
  Prolongation of time of appearance of ventricular extrasystoles (ESV): +59%
  Prolongation of time of appearance of ventricular tachycardium (TV): +53%
  Prolongation of time to death: +29%
[5]; 10 mg/kg
  Prolongation of time of appearance of ventricular extrasystoles (ESV): +35%
  Prolongation of time of appearance of ventricular tachycardium (TV): +35%
  Prolongation of time to death: +45%
[5]; 20 mg/kg
  Prolongation of time of appearance of ventricular extrasystoles (ESV): +111%
  Prolongation of time of appearance of ventricular tachycardium (TV): +105%
  Prolongation of time to death: +89%

## COc1ccc(C(=O)NC2(C)C3CC4CC2CN(C3)C4(C)C)cc1 (centres unmarked) [Example 8, N-(p-methoxybenzoyl)-4-amino 4,8,8-trimethyl-1-azaadamantane]
[1]; [12]
  ESV Percentage at 5 min: 35%
  ESV Percentage at 30 min: 36%
  ESV Percentage at 60 min: 53%
[6]
  MTD: 100 mg/kg
[2]; [9]
  LD50: 250 mg/kg
[7]
  ED50: 49 mg/kg
Anesthetized dog [4]; anesthetized dog
  Cardiac frequency, maximum variation: -15%
Anesthetized dog [4]; [13]
  Cardiac Flow, percentage of variation: -7 to -22%
  Cardiac Frequency, percentage of variation: -7 to -15%
  Systolic Arterial Pressure, percentage of variation: -6 to -21%
  Total Peripheral Resistances, percentage of variation: 0%
  dp/dt/p Left Ventricular, percentage of variation: 0 to -28%
[5]; 5 mg/kg
  Prolongation of time of appearance of ventricular extrasystoles (ESV): +45%
  Prolongation of time of appearance of ventricular tachycardium (TV): +43%
  Prolongation of time to death: +46%
[5]; 10 mg/kg
  Prolongation of time of appearance of ventricular extrasystoles (ESV): +71%
  Prolongation of time of appearance of ventricular tachycardium (TV): +84%
  Prolongation of time to death: +215%
[5]; 20 mg/kg
  Prolongation of time of appearance of ventricular extrasystoles (ESV): +98%
  Prolongation of time of appearance of ventricular tachycardium (TV): +107%
  Prolongation of time to death: +112%
